Assay results from PubChem BioAssay (NCI).
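Five concentrations, 48 hours, 96-well plates. At the GI50, growth is halved. TGI is the concentration that stops growth completely.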

Key:
Test in all cases: growth of human tumour cells (NCI), 48 h
HCT-15 colon = tested on: HCT-15 colon
CAKI-1 renal = tested on: CAKI-1 renal
PC-3 prostate = tested on: PC-3 prostate
EKVX NSCLC = tested on: EKVX NSCLC
NCI-H522 lung = tested on: NCI-H522 lung
MCF7 breast = tested on: MCF7 breast
M14 melanoma = tested on: M14 melanoma
IGROV1 ovarian = tested on: IGROV1 ovarian
786-0 renal = tested on: 786-0 renal
A498 renal = tested on: A498 renal
UACC-257 melanoma = tested on: UACC-257 melanoma
HOP-92 NSCLC = tested on: HOP-92 NSCLC
UO-31 renal = tested on: UO-31 renal
CCRF-CEM leukemia = tested on: CCRF-CEM leukemia
OVCAR-5 ovarian = tested on: OVCAR-5 ovarian
HOP-62 NSCLC = tested on: HOP-62 NSCLC
OVCAR-3 ovarian = tested on: OVCAR-3 ovarian
SNB-75 CNS = tested on: SNB-75 CNS
DU-145 prostate = tested on: DU-145 prostate
HT29 colon = tested on: HT29 colon
SF-539 CNS = tested on: SF-539 CNS
NCI/ADR-RES ovarian = tested on: NCI/ADR-RES ovarian
UACC-62 melanoma = tested on: UACC-62 melanoma
SW-620 colon = tested on: SW-620 colon
COLO 205 colon = tested on: COLO 205 colon
NCI-H226 lung = tested on: NCI-H226 lung
MALME-3M melanoma = tested on: MALME-3M melanoma
ACHN renal = tested on: ACHN renal
MDA-MB-231 breast = tested on: MDA-MB-231 breast
HCT-116 colon = tested on: HCT-116 colon
RXF 393 renal = tested on: RXF 393 renal
SK-MEL-28 melanoma = tested on: SK-MEL-28 melanoma
MOLT-4 leukemia = tested on: MOLT-4 leukemia
TK-10 renal = tested on: TK-10 renal
MDA-MB-435 = tested on: MDA-MB-435
SK-OV-3 ovarian = tested on: SK-OV-3 ovarian
U251 CNS = tested on: U251 CNS
A549 NSCLC = tested on: A549 NSCLC
HS 578T breast = tested on: HS 578T breast
HCC-2998 colon = tested on: HCC-2998 colon
BT-549 breast = tested on: BT-549 breast
T-47D breast = tested on: T-47D breast
SK-MEL-2 melanoma = tested on: SK-MEL-2 melanoma
SR leukemia = tested on: SR leukemia
SN12C renal = tested on: SN12C renal
RPMI-8226 leukemia = tested on: RPMI-8226 leukemia
HL-60(TB) leukemia = tested on: HL-60(TB) leukemia
LOX IMVI melanoma = tested on: LOX IMVI melanoma
OVCAR-4 ovarian = tested on: OVCAR-4 ovarian
SK-MEL-5 melanoma = tested on: SK-MEL-5 melanoma

With `Clc1ccc(CO/N=C(\Cn2ccnc2)c2ccc(Cl)cc2Cl)c(Cl)c1` the GI50 (HCT-15 colon) was 1570 nM, the TGI (HCT-15 colon) was 3210 nM and the GI50 (CAKI-1 renal) was 1380 nM. The TGI (CAKI-1 renal) was 3390 nM, the GI50 (PC-3 prostate) was 1270 nM and the TGI (PC-3 prostate) was 2720 nM. It also gave a GI50 (EKVX NSCLC) of 1430 nM, a TGI (EKVX NSCLC) of 2830 nM and a GI50 (NCI-H522 lung) of 1520 nM. It also gave a TGI (NCI-H522 lung) of 3280 nM, a GI50 (MCF7 breast) of 1540 nM and a TGI (MCF7 breast) of 3020 nM. For the same compound, the GI50 (M14 melanoma) was 1850 nM, the TGI (M14 melanoma) was 3710 nM and the GI50 (IGROV1 ovarian) was 1920 nM. For the same compound, the TGI (IGROV1 ovarian) was 3920 nM, the GI50 (786-0 renal) was 1660 nM and the TGI (786-0 renal) was 3140 nM. It also gave a GI50 (A498 renal) of 1320 nM, a TGI (A498 renal) of 2650 nM and a GI50 (UACC-257 melanoma) of 1680 nM. For the same compound, the TGI (UACC-257 melanoma) was 3180 nM, the GI50 (HOP-92 NSCLC) was 1150 nM and the TGI (HOP-92 NSCLC) was 2530 nM. For the same compound, the GI50 (UO-31 renal) was 1340 nM, the TGI (UO-31 renal) was 2790 nM and the GI50 (CCRF-CEM leukemia) was 1870 nM. The TGI (CCRF-CEM leukemia) was 4620 nM, the GI50 (OVCAR-5 ovarian) was 1670 nM and the TGI (OVCAR-5 ovarian) was 3260 nM. For the same compound, the GI50 (HOP-62 NSCLC) was 1560 nM, the TGI (HOP-62 NSCLC) was 2900 nM and the GI50 (OVCAR-3 ovarian) was 1660 nM. The TGI (OVCAR-3 ovarian) was 3120 nM, the GI50 (SNB-75 CNS) was 1650 nM and the TGI (SNB-75 CNS) was 3220 nM. The GI50 (DU-145 prostate) was 1960 nM, the TGI (DU-145 prostate) was 3660 nM and the GI50 (HT29 colon) was 1650 nM. It also gave a TGI (HT29 colon) of 3330 nM, a GI50 (SF-539 CNS) of 1860 nM and a TGI (SF-539 CNS) of 3340 nM. The GI50 (NCI/ADR-RES ovarian) was 1270 nM, the TGI (NCI/ADR-RES ovarian) was 2900 nM and the GI50 (UACC-62 melanoma) was 1240 nM. The TGI (UACC-62 melanoma) was 2670 nM, the GI50 (SW-620 colon) was 1550 nM and the TGI (SW-620 colon) was 3200 nM. The GI50 (COLO 205 colon) was 1860 nM, the TGI (COLO 205 colon) was 3290 nM and the GI50 (NCI-H226 lung) was 1420 nM. It also gave a TGI (NCI-H226 lung) of 3010 nM, a GI50 (MALME-3M melanoma) of 1660 nM and a TGI (MALME-3M melanoma) of 3360 nM. For the same compound, the GI50 (ACHN renal) was 1760 nM, the TGI (ACHN renal) was 3170 nM and the GI50 (MDA-MB-231 breast) was 1320 nM. It also gave a TGI (MDA-MB-231 breast) of 2750 nM, a GI50 (HCT-116 colon) of 1500 nM and a TGI (HCT-116 colon) of 3190 nM. The GI50 (RXF 393 renal) was 1610 nM, the TGI (RXF 393 renal) was 3050 nM and the GI50 (SK-MEL-28 melanoma) was 1670 nM. The TGI (SK-MEL-28 melanoma) was 3070 nM, the GI50 (MOLT-4 leukemia) was 2190 nM and the TGI (MOLT-4 leukemia) was 4940 nM. It also gave a GI50 (TK-10 renal) of 1810 nM, a TGI (TK-10 renal) of 3250 nM and a GI50 (MDA-MB-435) of 1660 nM. For the same compound, the TGI (MDA-MB-435) was 3190 nM, the GI50 (SK-OV-3 ovarian) was 1800 nM and the TGI (SK-OV-3 ovarian) was 3180 nM. It also gave a GI50 (U251 CNS) of 1510 nM, a TGI (U251 CNS) of 2940 nM and a GI50 (A549 NSCLC) of 1550 nM. It also gave a TGI (A549 NSCLC) of 3320 nM, a GI50 (HS 578T breast) of 2730 nM and a TGI (HS 578T breast) of over 100000 nM. The GI50 (HCC-2998 colon) was 1730 nM, the TGI (HCC-2998 colon) was 3420 nM and the GI50 (BT-549 breast) was 1970 nM. It also gave a TGI (BT-549 breast) of 3610 nM, a GI50 (T-47D breast) of 1770 nM and a TGI (T-47D breast) of 3360 nM. The GI50 (SK-MEL-2 melanoma) was 2060 nM, the TGI (SK-MEL-2 melanoma) was 3920 nM and the GI50 (SR leukemia) was 1650 nM. It also gave a TGI (SR leukemia) of 4290 nM, a GI50 (SN12C renal) of 1440 nM and a TGI (SN12C renal) of 2930 nM. For the same compound, the GI50 (RPMI-8226 leukemia) was 1450 nM, the TGI (RPMI-8226 leukemia) was 4520 nM and the GI50 (HL-60(TB) leukemia) was 2080 nM. For the same compound, the TGI (HL-60(TB) leukemia) was 4620 nM, the GI50 (LOX IMVI melanoma) was 1450 nM and the TGI (LOX IMVI melanoma) was 3210 nM. It also gave a GI50 (OVCAR-4 ovarian) of 1360 nM, a TGI (OVCAR-4 ovarian) of 2670 nM and a GI50 (SK-MEL-5 melanoma) of 1630 nM. For the same compound, the TGI (SK-MEL-5 melanoma) was 3030 nM.
